Measured values from the OligoGym collection.
Bases are written 5' to 3'; sugars and linkages follow in the same order, as letters with counts (s phosphorothioate, o phosphodiester; PS: all linkages phosphorothioate). The collection does not say whether C is 5-methylated. l = locked nucleic acid (LNA); d = 2'-deoxy (DNA)

molecular target: Tau; assay: rat primary cortical neurons, FLIPR, 25 uM ASO

Sequence | calcium oscillation score
TAATTCACACAACAAACTA (sugars l4 d11 l4, PS) | 88.7 % of control
TTATTAATTATCTGCA (sugars l3 d10 l3, PS) | 58.7 % of control
CCAGATTCCCCAACTCA (sugars l2 d12 l3, PS) | 76.7 % of control
AACTCATCAACACCTTTTAA (sugars l3 d13 l4, PS) | 70.8 % of control
TCCAATACTAGATCTA (sugars l4 d9 l3, PS) | 71.9 % of control
CTTTTCCCAATTATTAAC (sugars l4 d10 l4, PS) | 60.1 % of control
TGACCTCAACTCTACC (sugars l4 d10 l2, PS) | 68.5 % of control
AAACTCATTTACCAATTAT (sugars l4 d11 l4, PS) | 70.7 % of control
GCCATTTTCCATATAAT (sugars l4 d11 l2, PS) | 37.5 % of control
CTTTTTCTTGTTCTAACC (sugars l3 d11 l4, PS) | 62.3 % of control
CCATTTTCCATATAATTT (sugars l4 d10 l4, PS) | 70.7 % of control
CCCTAAAGTCCCAG (sugars l3 d8 l3, PS) | 51.4 % of control
GGATGTTGCCTAATGAGCCA (sugars l3 d14 l3, PS) | 0 % of control
CTTTCCTAATTCCCAAATTC (sugars l3 d15 l2, PS) | 60.9 % of control
ATGTCGATGCTGCCGG (sugars l3 d10 l3, PS) | 0 % of control
AATAGCAAACAGGAT (sugars l3 d9 l3, PS) | 3.83 % of control
GTCATCGCTTCCAGTC (sugars l3 d10 l3, PS) | 85.7 % of control
TCAGATTTTACTTCCACC (sugars l2 d13 l3, PS) | 57.5 % of control
CTCCTAATTTTGCACT (sugars l4 d10 l2, PS) | 44.2 % of control
GGATGTTGCCTAATGA (sugars l3 d10 l3, PS) | 0 % of control
AGGTTAAGTGATTAACCAAT (sugars l3 d14 l3, PS) | 115 % of control
AATAAGAAAGGAACGC (sugars l4 d8 l4, PS) | 5.95 % of control

Sequence | calcium oscillation score
CCAGACACCACTGGCGACTT (sugars l3 d14 l3, PS) | 128 % of control
CCTTAATTTCACCC (sugars l3 d8 l3, PS) | 66.7 % of control
CACCTTTTCATGTTAAA (sugars l4 d9 l4, PS) | 97.5 % of control
CTTTATTTCCAAATTCACT (sugars l3 d11 l1 d1 l3, PS) | 116 % of control
CTACTTTATTCCCTTAAC (sugars l4 d11 l3, PS) | 91.3 % of control
TCCTTCTTCATTCTTG (sugars l3 d10 l3, PS) | 23.8 % of control
ATTTAGTTTTCCCACCCA (sugars l1 d15 l2, PS) | 48 % of control
ACTGCGAGGAGCAGCT (sugars l3 d10 l3, PS) | 48.1 % of control
TTGGCTTTGGCGTTCT (sugars l3 d10 l3, PS) | 74.5 % of control
GACGTGGGTGATATTGTCCA (sugars l3 d14 l3, PS) | 0 % of control
CCAGGGACGTGGGTGATATT (sugars l3 d14 l3, PS) | 0 % of control
TTTCAACTCTTAGCAT (sugars l4 d8 l4, PS) | 70.8 % of control
CCACCATACTTGACTTCT (sugars l2 d14 l2, PS) | 76.8 % of control
AACATTCTCACCAAACCCA (sugars l3 d14 l2, PS) | 78.4 % of control
TCCCAAATTCCTCATAATCC (sugars l2 d16 l2, PS) | 64.5 % of control
TCCACTTAGACACTCTTT (sugars l3 d13 l2, PS) | 37.5 % of control
CTCTAAGTAGACCCTGGCCA (sugars l3 d14 l3, PS) | 19.1 % of control
CAAACCACTCTTATTCTTT (sugars l3 d12 l4, PS) | 83.2 % of control
CAACTGGTTTGTAGAC (sugars l3 d10 l3, PS) | 42.9 % of control
CCTTTGAAAGTCCTTT (sugars l4 d9 l3, PS) | 96.4 % of control
CCTCTAGTTTTACCTA (sugars l2 d11 l3, PS) | 58.8 % of control
GTCTGTCTTGGCTTTG (sugars l3 d10 l3, PS) | 0 % of control

Sequence | calcium oscillation score
TCCACTTAGACACTCTT (sugars l2 d11 l4, PS) | 50 % of control
TAATCACTCATGCCTTA (sugars l4 d9 l4, PS) | 62.9 % of control
CTCAAATCAATTCTCATTTC (sugars l4 d13 l3, PS) | 62 % of control
CTTACACACCACACACACTC (sugars l1 d17 l2, PS) | 88.5 % of control
CCATCAATTTGGAAAGATGA (sugars l3 d14 l3, PS) | 52.3 % of control
TGTACACGATCTCCGC (sugars l3 d10 l3, PS) | 145 % of control
CTGATCATAATCCTACC (sugars l3 d11 l3, PS) | 54.9 % of control
ACCTTTTTCCATCTTACT (sugars l4 d12 l2, PS) | 68.4 % of control
ATTCATTTTACTTTACTTT (sugars l4 d11 l4, PS) | 64.6 % of control
CCTCGTCAGCTAGCGT (sugars l3 d10 l3, PS) | 76 % of control
TGTAGACTATTTGCAC (sugars l3 d10 l3, PS) | 93.3 % of control
ATGTCGATGCTGCC (sugars l3 d8 l3, PS) | 137 % of control
AGTCCTAATCCTGTGC (sugars l3 d10 l3, PS) | 25.3 % of control
CCCTCCCTTTAATGCCAGGC (sugars l3 d14 l3, PS) | 6.04 % of control
GAGTGCTCTTAGCATC (sugars l3 d10 l3, PS) | 33.3 % of control
ATTTAATTTATTTTTTACT (sugars l4 d11 l4, PS) | 60.1 % of control
CCTTTTAATTCATTAG (sugars l4 d8 l4, PS) | 59 % of control
CCTTTGAAAGTCCTTT (sugars l4 d8 l4, PS) | 106 % of control
ATGATGGATGTTGCCTAATG (sugars l3 d14 l3, PS) | 0 % of control
ATTAATTATTAAATCTTCT (sugars l4 d11 l4, PS) | 63.9 % of control
TATTTATTCTTTTTATTATT (sugars l4 d12 l4, PS) | 58.6 % of control
TAAGGCAAGGCCTATT (sugars l3 d10 l3, PS) | 27.2 % of control

Sequence | calcium oscillation score
TTCCCTTAATTTCACC (sugars l3 d10 l3, PS) | 127 % of control
TTGAAGTCAAGCTTCTCAGA (sugars l3 d14 l3, PS) | 0 % of control
GCCTTACTTTCTACTCA (sugars l2 d13 l2, PS) | 70.7 % of control
GATACCCTTCCTCAGA (sugars l2 d12 l2, PS) | 30.9 % of control
AAGCATTTCAAGATAC (sugars l3 d10 l3, PS) | 66.7 % of control
TCGATGCTGCCGGT (sugars l3 d8 l3, PS) | 13 % of control
ACGTGGGTGATATTGTCCAG (sugars l3 d14 l3, PS) | 0 % of control
CAAAATCCTTAATTTAACCA (sugars l4 d12 l4, PS) | 60.6 % of control
CATCAACACCTTTTAATTCA (sugars l2 d14 l4, PS) | 98.4 % of control
TTACACCCAAACCTAAA (sugars l4 d9 l4, PS) | 92.3 % of control
CTTAATTTCACCCTC (sugars l3 d9 l3, PS) | 122 % of control
TAACCAACTTTCATCTACTT (sugars l3 d14 l3, PS) | 47.2 % of control
GACTTGTACACGAT (sugars l3 d8 l3, PS) | 112 % of control
ACCTTTTTCCATCTTACTAA (sugars l4 d13 l3, PS) | 52 % of control
CTCTTAGCATCCACTTA (sugars l3 d12 l2, PS) | 44.5 % of control
ATACTCAAATTCTTCCTT (sugars l4 d11 l3, PS) | 70.9 % of control
TATTTCCAAATTCACTTTTA (sugars llddldldddddddddllll, PS) | 152 % of control
CATTTACCAATTATCTTTAA (sugars l4 d12 l4, PS) | 72 % of control
ACTTTATTTCCAAATTCACT (sugars l5 d11 l4, PS) | 138 % of control
GATGTTGCCTAATGAG (sugars l3 d10 l3, PS) | 0 % of control
CAATCCATTTATATTCTTTT (sugars l4 d12 l4, PS) | 63.2 % of control
GGTGCTCTGGTCAAGG (sugars l3 d10 l3, PS) | 14.9 % of control

Sequence | calcium oscillation score
CGTCCCAGCGTGATCTTCCA (sugars lldllddddddddddlldll, PS) | 59.6 % of control
CTTTATTCCCTTAACAATAT (sugars l3 d14 l3, PS) | 74.6 % of control
TTAGCCCTAAAGTCCC (sugars l3 d10 l3, PS) | 28.6 % of control
TCAAAATCCTTAATTTAACC (sugars l4 d12 l4, PS) | 70.7 % of control
CTTTTTCCATCTTACTAATA (sugars l3 d14 l3, PS) | 46.5 % of control
TATTTCAACTCTTAGCA (sugars l4 d10 l3, PS) | 59 % of control
TACCATGTCGATGCT (sugars l3 d9 l3, PS) | 81.6 % of control
TCATTTACCAATTATCTTTA (sugars l4 d13 l3, PS) | 48.8 % of control
CTTACTTTCTACTCAATTCC (sugars l2 d16 l2, PS) | 60.6 % of control
CCCTGAAAGAGGGCAG (sugars l3 d10 l3, PS) | 18.4 % of control
TTCTTCCTTTGTAATTCC (sugars l3 d13 l2, PS) | 39.6 % of control
CAGAATATTACACCAT (sugars l4 d8 l4, PS) | 102 % of control
CTTGGCTTTGGCGTT (sugars l3 d9 l3, PS) | 82.4 % of control
AAAAGTCCATTCCCTCC (sugars l2 d12 l3, PS) | 64 % of control
TTTACACCACACTGTC (sugars l3 d10 l3, PS) | 83.3 % of control
GGCGACTTGTACACGA (sugars l3 d10 l3, PS) | 69.4 % of control
CCCCAGACCATCAATTT (sugars l2 d13 l2, PS) | 61.7 % of control
TCTAAGTAGACCCTGGCCAC (sugars l3 d14 l3, PS) | 23.8 % of control
CAACTCTTTGAACACCCC (sugars l2 d14 l2, PS) | 91.6 % of control
TATTTCCAAATTCACTTTTA (sugars ldlllddddddddddlldll, PS) | 145 % of control
AAGATACATGCGTCCT (sugars l3 d10 l3, PS) | 112 % of control
